{"source": "patent US10206937B2", "about": "“Boronic acid derivatives and therapeutic uses thereof” (Qpex Biopharma, Inc., priority 2014, dated 2019)", "tested_on": "strains of Enterobacteriaceae producing various carbapenemases (class A, D and B; 169 strains)", "assay": "Meropenem or tebipenem potentiation by Compounds 97 or 62 (MIC)", "type": "cell-based", "procedure": "The largest panel of clinical isolates expressing class A, D and B carbapenemases alone or in combination with other beta-lactamases (169 strains) was used to evaluate carbapenem potentiation activity of Compounds 97 and 62. MIC for meropenem and tebipenem of these strains were determined either alone or in the presence of Compounds 97 or 62, respectively, at a fixed concentration of 8 μg/ml in the growth media.", "data": [{"smiles": "C[C@@H](O)[C@H]1C(=O)N2C(C(=O)O)=C(SC3CN(C4=NCCS4)C3)[C@H](C)[C@H]12", "note": "[T]", "values": [{"measurement": "Tebipenem MIC alone (T)", "setting": "KP1182 Klebsiella pneumoniae SHV-OSBL(2b), NDM-1, OXA-232(c)", "result": "Z (MIC of greater than 10 μg/mL)"}, {"measurement": "Tebipenem MIC alone (T)", "setting": "KP1183 Klebsiella pneumoniae SHV-OSBL(2b), TEM-OSBL(2b), CTX-M-15, NDM-1", "result": "Z (MIC of greater than 10 μg/mL)"}, {"measurement": "Tebipenem MIC alone (T)", "setting": "KP1184 Klebsiella pneumoniae SHV-OSBL(2b), IMP-1", "result": "Y (MIC of 1 μg/mL to 10 μg/mL)"}, {"measurement": "Tebipenem MIC alone (T)", "setting": "KP1185 Klebsiella pneumoniae SHV-OSBL(2b), TEM-OSBL(2b), IMP-4", "result": "Z (MIC of greater than 10 μg/mL)"}, {"measurement": "Tebipenem MIC alone (T)", "setting": "KP1186 Klebsiella pneumoniae CTX-M-15, NDM-1", "result": "Z (MIC of greater than 10 μg/mL)"}, {"measurement": "Tebipenem MIC alone (T)", "setting": "KP1187 Klebsiella pneumoniae SHV-55(2be), TEM-OSBL(2b), CTX-M-15, NDM-1", "result": "Z (MIC of greater than 10 μg/mL)"}, {"measurement": "Tebipenem MIC alone (T)", "setting": "KP1188 Klebsiella pneumoniae SHV-OSBL(2b), CTX-M-15, NDM-1", "result": "Z (MIC of greater than 10 μg/mL)"}, {"measurement": "Tebipenem MIC alone (T)", "setting": "KP1189 Klebsiella pneumoniae TEM-OSBL(2b), CTX-M-15, CTX-M-27, NDM-1", "result": "Z (MIC of greater than 10 μg/mL)"}, {"measurement": "Tebipenem MIC alone (T)", "setting": "KP1190 Klebsiella pneumoniae KPC-4 VIM-4 TEM SHV", "result": "Z (MIC of greater than 10 μg/mL)"}, {"measurement": "Tebipenem MIC alone (T)", "setting": "KP1191 Klebsiella pneumoniae KPC-2", "result": "Z (MIC of greater than 10 μg/mL)"}, {"measurement": "Tebipenem MIC alone (T)", "setting": "KP1192 Klebsiella pneumoniae KPC-2 TEM SHV", "result": "Z (MIC of greater than 10 μg/mL)"}, {"measurement": "Tebipenem MIC alone (T)", "setting": "KP1193 Klebsiella pneumoniae KPC-3 TEM SHV", "result": "Z (MIC of greater than 10 μg/mL)"}, {"measurement": "Tebipenem MIC alone (T)", "setting": "KP1194 Klebsiella pneumoniae KPC TEM SHV", "result": "Z (MIC of greater than 10 μg/mL)"}, {"measurement": "Tebipenem MIC alone (T)", "setting": "KP1195 Klebsiella pneumoniae KPC TEM CTX-M-15", "result": "Z (MIC of greater than 10 μg/mL)"}, {"measurement": "Tebipenem MIC alone (T)", "setting": "KP1196 Klebsiella pneumoniae KPC TEM SHV CTX-M-15 CMY", "result": "Z (MIC of greater than 10 μg/mL)"}, {"measurement": "Tebipenem MIC alone (T)", "setting": "KP1197 Klebsiella pneumoniae KPC-3, VIM-1 TEM SHV", "result": "Z (MIC of greater than 10 μg/mL)"}, {"measurement": "Tebipenem MIC alone (T)", "setting": "KP1198 Klebsiella pneumoniae KPC-3, VIM-1 TEM SHV", "result": "Z (MIC of greater than 10 μg/mL)"}, {"measurement": "Tebipenem MIC alone (T)", "setting": "KP1199 Klebsiella pneumoniae KPC-3 TEM SHV", "result": "Z (MIC of greater than 10 μg/mL)"}, {"measurement": "Tebipenem MIC alone (T)", "setting": "KP1200 Klebsiella pneumoniae KPC-3 TEM SHV", "result": "Z (MIC of greater than 10 μg/mL)"}, {"measurement": "Tebipenem MIC alone (T)", "setting": "KP1210 Klebsiella pneumoniae KPC SHV TEM", "result": "Z (MIC of greater than 10 μg/mL)"}, {"measurement": "Tebipenem MIC alone (T)", "setting": "KP1211 Klebsiella pneumoniae KPC SHV TEM CTX-M-15", "result": "Z (MIC of greater than 10 μg/mL)"}, {"measurement": "Tebipenem MIC alone (T)", "setting": "KP1212 Klebsiella pneumoniae KPC SHV TEM CTX-M-15", "result": "Z (MIC of greater than 10 μg/mL)"}, {"measurement": "Tebipenem MIC alone (T)", "setting": "KP1213 Klebsiella pneumoniae KPC SHV TEM CTX-M-15", "result": "Z (MIC of greater than 10 μg/mL)"}, {"measurement": "Tebipenem MIC alone (T)", "setting": "KP1214 Klebsiella pneumoniae KPC SHV TEM + 1.9 kb", "result": "Z (MIC of greater than 10 μg/mL)"}, {"measurement": "Tebipenem MIC alone (T)", "setting": "KP1215 Klebsiella pneumoniae KPC SHV", "result": "Z (MIC of greater than 10 μg/mL)"}, {"measurement": "Tebipenem MIC alone (T)", "setting": "KP1216 Klebsiella pneumoniae KPC SHV TEM + 1.9 kb", "result": "Z (MIC of greater than 10 μg/mL)"}, {"measurement": "Tebipenem MIC alone (T)", "setting": "KP1217 Klebsiella pneumoniae KPC SHV TEM + 1.9 kb", "result": "Z (MIC of greater than 10 μg/mL)"}, {"measurement": "Tebipenem MIC alone (T)", "setting": "KP1218 Klebsiella pneumoniae KPC SHV TEM + 1.9 kb", "result": "Z (MIC of greater than 10 μg/mL)"}, {"measurement": "Tebipenem MIC alone (T)", "setting": "KP1219 Klebsiella pneumoniae KPC SHV TEM + 1.9 kb", "result": "Z (MIC of greater than 10 μg/mL)"}, {"measurement": "Tebipenem MIC alone (T)", "setting": "KP1220 Klebsiella pneumoniae KPC SHV TEM + 1.9 kb", "result": "Z (MIC of greater than 10 μg/mL)"}, {"measurement": "Tebipenem MIC alone (T)", "setting": "KP1221 Klebsiella pneumoniae KPC SHV TEM + 1.9 kb", "result": "Z (MIC of greater than 10 μg/mL)"}, {"measurement": "Tebipenem MIC alone (T)", "setting": "KP1222 Klebsiella pneumoniae KPC SHV TEM IMP", "result": "Z (MIC of greater than 10 μg/mL)"}, {"measurement": "Tebipenem MIC alone (T)", "setting": "KP1223 Klebsiella pneumoniae KPC SHV TEM", "result": "Z (MIC of greater than 10 μg/mL)"}, {"measurement": "Tebipenem MIC alone (T)", "setting": "KP1224 Klebsiella pneumoniae KPC SHV TEM", "result": "Z (MIC of greater than 10 μg/mL)"}, {"measurement": "Tebipenem MIC alone (T)", "setting": "KP1225 Klebsiella pneumoniae KPC SHV TEM + 1.9 kb CMY", "result": "Z (MIC of greater than 10 μg/mL)"}, {"measurement": "Tebipenem MIC alone (T)", "setting": "KP1226 Klebsiella pneumoniae KPC SHV TEM + 1.9 kb", "result": "Z (MIC of greater than 10 μg/mL)"}, {"measurement": "Tebipenem MIC alone (T)", "setting": "KP1227 Klebsiella pneumoniae KPC SHV TEM CTX-M-15", "result": "Z (MIC of greater than 10 μg/mL)"}, {"measurement": "Tebipenem MIC alone (T)", "setting": "KP1228 Klebsiella pneumoniae OXA-48 TEM SHV CTX-M-15", "result": "Y (MIC of 1 μg/mL to 10 μg/mL)"}, {"measurement": "Tebipenem MIC alone (T)", "setting": "KP1229 Klebsiella pneumoniae OXA-48 TEM SHV CTX-M-15", "result": "Z (MIC of greater than 10 μg/mL)"}, {"measurement": "Tebipenem MIC alone (T)", "setting": "KP1230 Klebsiella pneumoniae OXA-48 TEM SHV CTX-M-15", "result": "Y (MIC of 1 μg/mL to 10 μg/mL)"}, {"measurement": "Tebipenem MIC alone (T)", "setting": "KP1231 Klebsiella pneumoniae OXA-48 TEM SHV CTX-M-15", "result": "Y (MIC of 1 μg/mL to 10 μg/mL)"}, {"measurement": "Tebipenem MIC alone (T)", "setting": "KP1232 Klebsiella pneumoniae OXA-48 TEM SHV CTX-M-15", "result": "Z (MIC of greater than 10 μg/mL)"}, {"measurement": "Tebipenem MIC alone (T)", "setting": "KP1234 Klebsiella pneumoniae OXA-48 TEM SHV CTX-M-15", "result": "Z (MIC of greater than 10 μg/mL)"}, {"measurement": "Tebipenem MIC alone (T)", "setting": "KP1236 Klebsiella pneumoniae OXA-48 TEM SHV CTX-M-15", "result": "Z (MIC of greater than 10 μg/mL)"}, {"measurement": "Tebipenem MIC alone (T)", "setting": "PM1024 Proteus mirabilis TEM-1(2b), CMY-16, VIM-1", "result": "Z (MIC of greater than 10 μg/mL)"}, {"measurement": "Tebipenem MIC alone (T)", "setting": "PM1025 Proteus mirabilis SHV-5(2be), TEM-OSBL(2b), VEB-2, VIM-1", "result": "Y (MIC of 1 μg/mL to 10 μg/mL)"}, {"measurement": "Tebipenem MIC alone (T)", "setting": "PM1026 Proteus mirabilis DHA-1, IMP-26", "result": "Y (MIC of 1 μg/mL to 10 μg/mL)"}, {"measurement": "Tebipenem MIC alone (T)", "setting": "PM1027 Proteus mirabilis VIM-5", "result": "Z (MIC of greater than 10 μg/mL)"}, {"measurement": "Tebipenem MIC alone (T)", "setting": "SM1023 Serratia marcescens VIM-4", "result": "Z (MIC of greater than 10 μg/mL)"}, {"measurement": "Tebipenem MIC alone (T)", "setting": "SM1024 Serratia marcescens TEM-1(2b), IMP-47", "result": "Y (MIC of 1 μg/mL to 10 μg/mL)"}]}]}
